In patent US20060008891A1, “Cathepsin G-related peptides as modulators of formylpeptide receptors (FPR)” (The Government of USA as repersented by the Secretary, …, priority 2004, published 2006):
Entries after “also recorded” stand apart in the source; their conditions may differ. Each block holds one molecule with its values, some of them ahead of it.

What was measured:
PKC isozymes = experiment: PKC translocation in parental RBL cells; type: cell-based, rat; details: 100 nM fMLF, 10 μg/ml CaG or PMA 500 nM, 37° C. 10 min
PKCζ = PKCζ translocation in ETFR cells (confocal microscopy); type: cell-based, rat; details: 100 nM fMLF, 10 μg/ml CaG or PMA 500 nM, 37° C. 10 min
Procedure: (§1) ETFR cells were seeded on coverslips and cultured overnight in DMEM containing 1% FCS at 37° C. After further culture in FCS-free DMEM for 3 h, cells were treated with stimulants for indicated time periods at 37° C. and were then fixed in 4% paraformaldehyde for 5 min at room temperature. The cells were permeabilized with 0.2% Tween 20 for 30 min at 4° C. and the reaction was blocked with 5% goat normal serum for 15 min at room temperature. The rabbit anti-PKCα/β, δ, and ξ, antibodies (1:1000 in DPBS) were applied separately for 1 h at room temperature. After three rinses with DPBS, the cells were stained with FITC-labeled goat anti-rabbit secondary antibody (PharMingen, 1:1000 in DPBS) for 1 h at room temperature. The coverslips were mounted with an anti-fade, water-based mounting medium with Propidium Iodide (PI) (Vector Lab, Burlingamem, Calif.) and analyzed under a laser scanning confocal fluorescence microscope (Zeiss LSM510 NLO Meta, Jena, Germany). Excitation wavelengths 488 (for FITC) and 568 (for PI) nm were used to generate fluorescence emission in green and red, respectively.

PKCδ = PKCδ translocation in ETFR cells; type: cell-based, rat; details: 100 nM fMLF, 10 μg/ml CaG or PMA 500 nM, 37° C. 10 min
Procedure: as §1, with “The cells were permeabilized with 0.2% Tween 20 for 30 min at 4° C. and the reaction was blocked with 5% goat normal serum for 15 min at room temperature.” left out, “Germany).” for “Germany). Excitation wavelengths 488 (for FITC) and 568 (for PI) nm were used to generate fluorescence emission in green and red, respectively.”

PKCα/β = PKCα/β translocation in ETFR cells; type: cell-based, rat; details: 100 nM fMLF, 10 μg/ml CaG or PMA 500 nM, 37° C. 10 min
Procedure: as §1

FPR [1] = target: T1, FPR (Homo sapiens, UniProt P21462); experiment: Chemotaxis assay, RBL cells transfected with FPR (ETFR cells); type: cell-based; details: for inhibition of ETFR cell chemotaxis to CaG: CaG 10 μg/ml; for inhibition of ETFR cell chemotaxis to fMLF: fMLF 100 nM
T1 construct: expressed in transfected cells; host or cells: Rat basophilic leukemia (RBL) cells, stably transfected (ETFR cells); gift of H. Ali and R. Snyderman, Duke University
T1 sequence (P21462 1-350): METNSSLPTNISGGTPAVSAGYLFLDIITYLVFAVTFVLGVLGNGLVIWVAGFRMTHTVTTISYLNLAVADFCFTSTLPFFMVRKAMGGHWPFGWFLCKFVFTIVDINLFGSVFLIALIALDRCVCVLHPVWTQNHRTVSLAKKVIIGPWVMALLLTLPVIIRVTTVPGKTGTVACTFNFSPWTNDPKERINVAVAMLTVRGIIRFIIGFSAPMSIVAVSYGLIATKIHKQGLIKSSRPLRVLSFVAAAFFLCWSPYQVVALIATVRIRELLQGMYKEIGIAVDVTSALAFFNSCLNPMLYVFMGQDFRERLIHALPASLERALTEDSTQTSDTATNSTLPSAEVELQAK
Procedure: (§2) Human PBMC were isolated from leukopacks obtained through the courtesy of Transfusion Medicine Department, National Institutes of Health Clinical Center (Bethesda, Md.) by Ficoll-Hypaque density gradient centrifugation. Monocytes were purified from human PBMC by Percoll gradient to yield>90% pure preparations. […] H. Ali and R. Snyderman, Duke University (Durham, N.C.) and maintained in the presence of 0.8 mg/ml geneticin (G418, Life Technologies, Rockville, Md.) in DMEM supplemented with 10% FCS. B. Chemotaxis assay Migration of phagocytes and ETFR cells was assessed using a 48-well microchemotaxis chamber (Neuroprobe, Cabin John, Md.) as previously described (Hu et al. (2001) J Leukoc Biol 70 15512). Briefly, different concentrations of stimulants were placed in the wells of the lower compartment of the chamber, and 50 μl cells (1.5×10^6 cells/ml for monocyte and neutrophil, 1×10^6 ETFR cells/ml) were added to the wells of the upper compartment. The lower and upper compartments were separated by either a 5-μm (for monocyte) or a 10-μm pore size, collagen-coated (for ETFR cells) polycarbonate filter (Osmonics, Livermore, Calif.). After incubation at 37° C. in humidified air with 5% CO2 (60 min for neutrophils, 90 min for monocytes, 4.5 h for ETFR cells), the filter was removed and stained, and the cells migrating across the filter were counted with light microscopy. The results are presented as the mean number of cells (±SD) in three high power fields (HPFs). For analysis of cross-desensitization, cells were pretreated with indicated reagents for 1 h at 37° C. After thorough washing with cold medium (RPMI 1640, 1% BSA), the cells were resuspended and assayed. To measure the effect of various signaling inhibitors, unless otherwise indicated, the cells were pre-incubated at 37° C. for 60 min with the inhibitors, and were then added to the upper wells of the chemotaxis chamber.

neutrophils = experiment: Chemotaxis assay, neutrophils; type: cell-based, human; details: human neutrophils
Procedure: as §2

monocytes = experiment: Chemotaxis assay, monocytes; type: cell-based, human
Procedure: as §2, with “For analysis of cross-desensitization, cells were pretreated with indicated reagents for 1 h at 37° C.” left out

FPR [2] = target: T1, FPR; experiment: Chemotactic activity for ETFR cells after α1-ACT treatment of stimulants and supernatants; type: cell-based; details: α1-ACT 0.75 μM
Procedure: ETFR and RBL cells (10×10^6/ml) were incubated with medium or 10 μg/ml CaG at 37° C. for 1 h. Supernatants were collected and measured for chemotactic activity for un-treated ETFR cells.
as §2
Cleavage by proteases is required for regulation of the function of a number of molecules in triggering proper physiological processes. […] Therefore, we examined whether interaction of FPR with CaG might cleave FPR to generate a new defacto agonist for this receptor, such as in the model of thrombin activation of its receptors. ETFR cells were cultured with CaG under the conditions that are sufficient for cleavage of other proteins by CaG (Kinlough-Rathbone et al. (1999) Thromb Res 95, 31524). The supernatant was collected and examined for its chemotactic activity for FPR. […]

Molecule: CCCCCCCCCCCCCC(=O)O[C@@H]1[C@@H](C)[C@@]2(O)[C@@H](C=C(CO)C[C@]3(O)C(=O)C(C)=C[C@@H]23)[C@@H]2C(C)(C)[C@]12OC(C)=O [PMA]
- PKC translocation in parental RBL cells (PKC isozymes): activated these PKC isozymes in both ETFR and RBL cells; also recorded: induced translocation of PKCζ, PKCα/β, and PKCδ in ETFR and RBL cells
- translocation of PKCζ (PKCζ): activated these PKC isozymes in both ETFR and RBL cells; also recorded: induced translocation of PKCζ, PKCα/β, and PKCδ in ETFR and RBL cells
- translocation of PKCδ (PKCδ): induced translocation of PKCζ, PKCα/β, and PKCδ in ETFR and RBL cells
- translocation of PKCα/β (PKCα/β): activated these PKC isozymes in both ETFR and RBL cells; also recorded: induced translocation of PKCζ, PKCα/β, and PKCδ in ETFR and RBL cells

Molecule: CN(C)CCCn1cc(C2=C(c3c[nH]c4ccccc34)C(=O)NC2=O)c2ccccc21 [Gö 6850, bisindolylmaleimide I]
- inhibition of ETFR cell chemotaxis to CaG (FPR [1]): limited effect on fMLF- and CaG-induced ETFR cell migration
- inhibition of ETFR cell chemotaxis to fMLF (FPR [1]): limited effect on fMLF- and CaG-induced ETFR cell migration
- inhibition of neutrophil chemotaxis to CaG (neutrophils): did not have any effect
- inhibition of neutrophil chemotaxis to IL-8 (neutrophils): did not have any effect
- inhibition of neutrophil chemotaxis to fMLF (neutrophils): did not have any effect

Molecule: CN[C@@H]1C[C@H]2O[C@@](C)([C@@H]1OC)n1c3ccccc3c3c4c(c5c6ccccc6n2c5c31)C(=O)NC4 [Staurosporine, reference compound]
- inhibition of ETFR cell chemotaxis to CaG (FPR [1]): abrogated chemotaxis of ETFR cells induced by either CaG or fMLF
- inhibition of ETFR cell chemotaxis to fMLF (FPR [1]): abrogated chemotaxis of ETFR cells induced by either CaG or fMLF

Molecule: C/C=C/C[C@@H](C)[C@@H](O)[C@H]1C(=O)N[C@@H](CC)C(=O)N(C)CC(=O)N(C)[C@@H](CC(C)C)C(=O)N[C@@H](C(C)C)C(=O)N(C)[C@@H](CC(C)C)C(=O)N[C@@H](C)C(=O)N[C@H](C)C(=O)N(C)[C@@H](CC(C)C)C(=O)N(C)[C@@H](CC(C)C)C(=O)N(C)[C@H](C(C)C)C(=O)N1C [CsH, Cyclosporin H, reference compound]
- inhibition of monocyte chemotaxis to CaG (monocytes; CaG 10 μg/ml): abolished monocyte chemotaxis to CaG and fMLF
- inhibition of monocyte chemotaxis to fMLF (monocytes; fMLF 10 nM): abolished monocyte chemotaxis to CaG and fMLF

- effect on chemotactic activity of supernatant from CaG-digested ETFR cells (FPR [2]; 15 min room temperature): completely abolished
- effect on chemotactic activity of supernatants from CaG-treated RBL cells (FPR [2]; 15 min room temperature): inhibited by α1-ACT
B1: α1-ACT: α1-antichymotrypsin, CaG inhibitor (protein, UniProt P01011 24-423, looked up)
Alpha-1-antichymotrypsin: HPNSPLDEENLTQENQDRGTHVDLGLASANVDFAFSLYKQLVLKAPDKNVIFSPLSISTALAFLSLGAHNTTLTEILKGLKFNLTETSEAEIHQSFQHLLRTLNQSSDELQLSMGNAMFVKEQLSLLDRFTEDAKRLYGSEAFATDFQDSAAAKKLINDYVKNGTRGKITDLIKDLDSQTMMVLVNYIFFKAKWEMPFDPQDTHQSRFYLSKKKWVMVPMMSLHHLTIPYFRDEELSCTVVELKYTGNASALFILPDQDKMEEVEAMLLPETLKRWRDSLEFREIGELYLPKFSISRDYNLNDILLQLGIEEAFTSKADLSGITGARNLAVSQVVHKAVLDVFEEGTEASAATAVKITLLSALVETRTIVRFNRPFLMIIVPTDTQNIFFMSKVTNPKQA
- effect on chemotactic activity of CaG (FPR [2]; CaG 10 μg/ml): significantly reduced chemotactic activity
- effect on chemotactic activity of fMLF (FPR [2]; fMLF 100 nM): did not affect the chemotactic activity of fMLF for FPR
